In ChEMBL document CHEMBL5046233, “Nitroxoline and its derivatives are potent inhibitors of metallo-β-lactamases” (Eur J Med Chem, 2022):

Legend:
Type in all cases: functional
Pseudomonas aeruginosa [1] = test: Potentiation of imipenem-induced antibacterial activity against Pseudomonas aeruginosa T1098 expressing IMP-7 assessed as fold change in imipenem MIC at 32 mg/L by CLSI protocol based broth microdilution assay
Klebsiella pneumoniae [2] = test: Potentiation of imipenem-induced antibacterial activity against Klebsiella pneumoniae T2432 expressing KPC-9 assessed as fold change in imipenem MIC at 32 mg/L by CLSI protocol based broth microdilution assay
Enterobacter cloacae = test: Potentiation of imipenem-induced antibacterial activity against Enterobacter cloacae T2353 expressing VIM-1 assessed as imipenem MIC at 32 mg/L by CLSI protocol based broth microdilution assay
Escherichia coli [3] = test: Potentiation of imipenem-induced antibacterial activity against Escherichia coli T2359 expressing NDM-1 assessed as imipenem MIC at 32 mg/L by CLSI protocol based broth microdilution assay
Escherichia coli [4] = test: Potentiation of ceftazidime-induced antibacterial activity against Escherichia coli clinical isolate T2228 expressing VIM-1 assessed as ceftazidime MIC at 32 mg/L by CLSI protocol based broth microdilution assay
Pseudomonas aeruginosa [5] = test: Potentiation of imipenem-induced antibacterial activity against Pseudomonas aeruginosa T2283 expressing VIM-2 assessed as fold change in imipenem MIC at 32 mg/L by CLSI protocol based broth microdilution assay
Pseudomonas aeruginosa [6] = test: Potentiation of imipenem-induced antibacterial activity against Pseudomonas aeruginosa T2325 expressing IMP-1 assessed as fold change in imipenem MIC at 32 mg/L by CLSI protocol based broth microdilution assay
Pseudomonas aeruginosa [7] = test: Potentiation of imipenem-induced antibacterial activity against Pseudomonas aeruginosa T2325 expressing IMP-1 assessed as imipenem MIC at 32 mg/L by CLSI protocol based broth microdilution assay
Escherichia coli [8] = test: Potentiation of gentamicin-induced antibacterial activity against Escherichia coli clinical isolate T2228 expressing VIM-1 assessed as gentamicin MIC at 32 mg/L by CLSI protocol based broth microdilution assay
Klebsiella pneumoniae [9] = test: Potentiation of ceftazidime-induced antibacterial activity against Klebsiella pneumoniae clinical isolate T2301 expressing NDM-1 assessed as ceftazidime MIC at 32 mg/L by CLSI protocol based broth microdilution assay

Question: `N#CCN(Cc1ccccc1)Cc1cc([N+](=O)[O-])c2cccnc2c1O` was tested. Which “fold change (FC)” value (Pseudomonas aeruginosa [1]) did it give?
Answer: 8

Question: And the “fold change (FC)” value (Klebsiella pneumoniae [2])?
Answer: 2

Question: What about the MIC (Enterobacter cloacae) of the same molecule?
Answer: 1 ng/mL

Question: And the MIC (Escherichia coli [3])?
Answer: 0.5 ng/mL

Question: What about the MIC (Escherichia coli [4]) of the same molecule?
Answer: 60 ng/mL

Question: What about the “fold change (FC)” value (Pseudomonas aeruginosa [5]) of the same molecule?
Answer: 32

Question: What about the “fold change (FC)” value (Pseudomonas aeruginosa [6]) of the same molecule?
Answer: 32

Question: And the MIC (Pseudomonas aeruginosa [7])?
Answer: 1 ng/mL

Question: What about the MIC (Escherichia coli [8]) of the same molecule?
Answer: 2 ng/mL

Question: What about the MIC (Klebsiella pneumoniae [9]) of the same molecule?
Answer: 64 ng/mL
